Like-named read-outs stand apart in the source and are kept apart here.
What was measured:
[1] = test system: factor VII; assay: Factor VII knock down evaluation (LNP with FVII siRNA); format: in vivo, Balb/C mice; details: Table 3; 0.03 mg/kg
How it was run: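 Female Balb/C mice, 7–8 weeks old, received FVII siRNA lipid nanoparticles intravenously at 0.03 or 0.01 mg/kg. Plasma was collected 48 h later and FVII protein measured by chromogenic assay at 405 nm against a control plasma calibration curve. Levels are relative to saline-treated controls.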

[2] = test system: hEPO; assay: hEPO mRNA expression evaluation (hEPO-LNPs); format: in vivo, Balb/c mice; details: Table 3; 0.3 mg/kg
[3] = Lipid nanoparticle size, PDI and encapsulation; format: physicochemical; details: Table 3; for Size (nm): lipid nanoparticle; for EE %: lipid nanoparticle encapsulation
Description: In the context of nucleic acids, full encapsulation may be determined by performing a membrane-impermeable fluorescent dye exclusion assay, which uses a dye that has enhanced fluorescence when associated with nucleic acid. Encapsulation is determined by adding the dye to a lipid formulation, measuring the resulting fluorescence, and comparing it to the fluorescence observed upon addition of a small amount of nonionic detergent. Detergent-mediated disruption of the lipid layer releases the encapsulated nucleic acid, allowing it to interact with the membrane-impermeable dye. Nucleic acid encapsulation may be calculated as E=(I0−I)/I0, where I and I0 refer to the fluorescence intensities before and after the addition of detergent.

[4] = Lipid nanoparticle size, PDI and encapsulation; format: physicochemical; details: Table 3
[5] = Measured pKa in the indicated formulation
Description: Measured pKa values were determined based on the pH measured in the indicated formulation (i.e., EPO or FVII formulation).

[6] = In vivo biodegradability assay (lipid in liver); details: Table 3; liver tissue, 0.3 mg/kg dose
[7] = mouse, in vivo

SMILES	Size (nm) [3] [nm]	EE % [3] [%]	PDI [4]	pKa [5]	Invivo lipid degradability ng/g of Liver tissue @ 0.3 mg/kg dose [6]	FVII KD % @ 0.03 mg/kg [1] [%]	EPO expression in ng/mL @ 0.3 mg/kg [2] [ng/mL]	pKa ([5]; Table 3, formulation not indicated)	Invivo lipid degradability ng/g of Liver tissue @ 0.3 mg/kg dose [7] [ng/g]
CCn1cc(CCC(C)C(=O)OCC(COC(=O)C(C)CCc2cn(CC)c3ccccc23)OC(=O)CCCN(CCCC(=O)OC(COC(=O)C(C)CCc2cn(CC)c3ccccc23)COC(=O)C(C)CCc2cn(CC)c3ccccc23)C(=O)SCCCN(C)C)c2ccccc21 (centres unmarked) [Lipid 43, ((4,4′-((((3-(dimethylamino)propyl)thio)carbonyl)azanediyl)bis(butanoyl))bis(oxy))bis(propane-2,1,3-triyl)tetrakis(4-(1-ethyl-1H-indol-3-yl)-2-methylbutanoate)]	92.35	90	0.05	–	1970 ± 379 ng/g	15.24	14.3	6.33	–
CCCCCCC(C)(C)C(=O)OCC(COC(=O)CCCN(CCCC(=O)OCC(COC(=O)C(C)(C)CCCCCC)COC(=O)C(C)(C)CCCCCC)C(=O)SCCCN(C)C)COC(=O)C(C)(C)CCCCCC [Lipid 55]	71.78	93.0	0.103	6.59	63300 ng/g	72.17	10312.89	–	–
CCCCCCCC(=O)OCC(C)(COC(=O)CCCCCCC)COC(=O)CCCN(CCCC(=O)OCC(C)(COC(=O)CCCCCCC)COC(=O)CCCCCCC)C(=O)SCCCN(C)C [Lipid 54]	76.03	90.9	0.072	7.3	BLOQ	86.88	25548.45	–	–
Cc1ccc(CCC(C)C(=O)OCC(COC(=O)C(C)CCc2ccc(C)cc2)OC(=O)CCCN(CCCC(=O)OC(COC(=O)C(C)CCc2ccc(C)cc2)COC(=O)C(C)CCc2ccc(C)cc2)C(=O)SCCCN(C)C)cc1 (centres unmarked) [Lipid 63, ((4,4′-((((3-(dimethylamino)propyl)thio)carbonyl)azanediyl)bis(butanoyl))bis(oxy))bis(propane-2,1,3-triyl)tetrakis(2-methyl-4-(p-tolyl)butanoate)]	82.65	85.9	0.046	–	–	76.17	4601	–	603 ± 57.6
CCCCCC(C)(C)C(=O)OCC(C)(COC(=O)CCCN(CCCC(=O)OCC(C)(COC(=O)C(C)(C)CCCCC)COC(=O)C(C)(C)CCCCC)C(=O)SCCCN(C)C)COC(=O)C(C)(C)CCCCC [Lipid 56]	67.34	91.5	0.081	6.55	81900 ng/g	46.3	5463.76	–	–
CC1CCC(CCC(=O)OCC(C)(COC(=O)CCC2CCC(C)CC2)COC(=O)CCC(CCC(=O)OCC(C)(COC(=O)CCC2CCC(C)CC2)COC(=O)CCC2CCC(C)CC2)OC(=O)CCCN(C)C)CC1 (centres unmarked) [Lipid 51, Bis(2-methyl-3-((3-(4-methylcyclohexyl)propanoyl)oxy)-2-(((3-(4-methylcyclohexyl)propanoyl)oxy)methyl)propyl) 4-((4-(dimethylamino)butanoyl)oxy)heptanedioate]	65.71	90.4	0.059	6.53	36000 ng/g	65.23	868.5	–	–

Continued, in another order:

Size (nm) [3] [nm]	EE % [3] [%]	PDI [4]	pKa [5]	Invivo lipid degradability ng/g of Liver tissue @ 0.3 mg/kg dose [6]	SMILES	FVII KD % @ 0.03 mg/kg [1] [%]	EPO expression in ng/mL @ 0.3 mg/kg [2] [ng/mL]	pKa ([5]; Table 3, formulation not indicated)	Invivo lipid degradability ng/g of Liver tissue @ 0.3 mg/kg dose [7] [ng/g]
81.62	91.5	0.114	7.08	–	CC1CCC(CCC(=O)OCC(C)(COC(=O)CCC2CCC(C)CC2)COC(=O)CCN(CCC(=O)OCC(C)(COC(=O)CCC2CCC(C)CC2)COC(=O)CCC2CCC(C)CC2)C(=O)OCCCN(C)C)CC1 (centres unmarked) [Lipid 46]	82.9	958.2	–	–
85.94	93.1	0.076	6.93	14200 ng/g	CN(C)CCCSC(=O)N(CCCC(=O)OCC(C)(COC(=O)CCC1CCCCC1)COC(=O)CCC1CCCCC1)CCCC(=O)OCC(C)(COC(=O)CCC1CCCCC1)COC(=O)CCC1CCCCC1 [Lipid 53, ((4,4′-((((3-(Dimethylamino)propyl)thio)carbonyl)azanediyl)bis(butanoyl))bis(oxy))bis(methylene))bis(2-methylpropane-2,1,3-triyl)tetrakis(3 cyclohexylpropanoate)]	85.45	15844.04	–	–
72.43	95.3	0.056	6.64	6880 ng/g	CN(C)CCCC(=O)OC(CCCC(=O)OCC(C)(COC(=O)CCC1CCCCC1)COC(=O)CCC1CCCCC1)CCCC(=O)OCC(C)(COC(=O)CCC1CCCCC1)COC(=O)CCC1CCCCC1 [Lipid 62, bis(3-((3-cyclohexylpropanoyl)oxy)-2-(((3-cyclohexylpropanoyl)oxy)methyl)-2-methylpropyl) 5-((4-(dimethylamino)butanoyl)oxy)nonanedioate]	–	2930.66	–	–
77.62	90.8	0.038	7.2	BLOQ	CN(C)CCCSC(=O)N(CCCC(=O)OCC(COC(=O)CCC1CCCCC1)COC(=O)CCC1CCCCC1)CCCC(=O)OCC(COC(=O)CCC1CCCCC1)COC(=O)CCC1CCCCC1 [Lipid 52]	69.66	17888.62	–	–
97.08	94.7	0.13	7.04	28100 ng/g	CC1CCC(CCC(=O)OCC(C)(COC(=O)CCC2CCC(C)CC2)COC(=O)CCN(CCCCCN(C)C)CCC(=O)OCC(C)(COC(=O)CCC2CCC(C)CC2)COC(=O)CCC2CCC(C)CC2)CC1 (centres unmarked) [Lipid 50, (((3,3′-((5-(dimethylamino)pentyl)azanedivl)bis(propanovl))bis(oxy))bis(methylene))bis(2-methylpropane-2,1,3-triyl)tetrakis(3-(4-methylcyclohexyl) propanoate)]	93.5	579.2	–	–
74.77	92.1	0.068	6.37	BLOQ	CN(C)CCCC(=O)OC(CCCCCC(=O)OC(COC(=O)CCC1CCCCC1)COC(=O)CCC1CCCCC1)CCCCCC(=O)OC(COC(=O)CCC1CCCCC1)COC(=O)CCC1CCCCC1 [Lipid 59, bis(1,3-bis((3-cyclohexylpropanoyl)oxy)propan-2-yl) 7-((4-(dimethylamino)butanoyl)oxy)tridecanedioate]	–	14723.72	–	–
